# Experiments:
# [1] = molecular target: α1B (Cav2.2), β3 and α2δ subunits of the N-type calcium channel (stable HEK cell line) (Rattus norvegicus, UniProt Q02294); test: Calcium-dye indicator assay (FDSS, KCl depolarization); assay type: cell-based; settings: calcium mobilization response to 50 mM KCl; six-point concentration-response
# Procedure, shortened: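 HEK cells stably co-expressing α1B, β3 and α2δ subunits, loaded with calcium dye, exposed to compound for 5 min before 50 mM KCl depolarization, 3 min further read on FDSS. Maximal fluorescence normalized to KCl maximum and buffer minimum; IC50 by sigmoidal nonlinear regression.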
# [2] = tested on: Cav2.2 (N-type calcium channel; α1B, α2δ and β3 subunits stably expressed in HEK293 cells); test: Automated electrophysiology assay (QPatch-HT patch clamp); assay type: cell-based; settings: 0.1 μM; for QPatch % Inhibition, High Freq: high frequency stimulation (15th pulse of 5 Hz train); for QPatch % Inhibition, Low Freq: low frequency stimulation (1st pulse of train)
# Procedure, shortened: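 Whole-cell automated patch clamp of HEK293 cells stably expressing α1B, α2δ-1 and β3, with 10 mM Ba²⁺/TEA external solution and CsCl internal solution. From −80 mV, trains of 15 pulses to +20 mV at 5 Hz every 30 s. Pulse 1 and pulse 15 currents normalized to the no-compound control period, with CdCl2 used to zero the current.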
Structure (SMILES),IC50 [1] [nM],"QPatch % Inhibition, High Freq [2] [%]","QPatch % Inhibition, Low Freq [2] [%]"
"COc1ccccc1-n1nc(C2CC(C)(C)OC(C)(C)C2)cc1-c1cc(C)cs1 [Compound 18, 1-(2-Methoxyphenyl)-5-(4-methylthiophen-2-yl)-3-(2,2,6,6-tetramethyltetrahydro-2H-pyran-4-yl)-1H-pyrazole]",5.3,16,−23
"COc1ccccc1-n1nc(C2CC(C)(C)OC(C)(C)C2)cc1-c1ccc(C(C)O)cc1 (stereo not drawn) [Compound 44, 1-{4-[1-(2-Methoxyphenyl)-3-(2,2,6,6-tetramethyltetrahydro-2H-pyran-4-yl)-1H-pyrazol-5-yl]-phenyl}-ethanol]",19,6,20

# Reference: patent US8901314B2, “Substituted pyrazoles as N-type calcium channel blockers” (Janssen Pharmaceutica NV, priority 2012, dated 2014)
